Literature values in PMC6337720 (Inorganic chemistry, 2018).

Conditions: aerated CH3CN

F[P-](F)(F)(F)(F)F.F[P-](F)(F)(F)(F)F.[Ru+2].c1ccc(-c2ccccn2)nc1.c1ccc(-c2ccccn2)nc1.c1ccc(-c2ccccn2)nc1 [[Ru(bpy)3](PF6)2]
ΦΔ singlet oxygen quantum yield of the standard: 0.56
